Where two headings read alike, the source gives them in different places.
Assays:
cMet enzyme = cMet enzyme (Homo sapiens, UniProt P08581); experiment: cMet Homogeneous Time Resolved Fluorescence (HTRF) in vitro assay; type: biochemical; settings: relative IC50; read-out: c-Met IC50 (HTRF)
Excerpt: This assay is based on HTRF technology and it is used to detect the phosphorylation of biotin labeled tyrosine peptide by cMet enzyme. After the reaction is completed, XL665 labeled streptavidin is used to recognize the biotin unit and a Europium (Eu3+) labeled anti-phospho-tyrosine antibody is used to recognize the phosphorylated tyrosine. The detection process relies on the transfer of energy between the excited Eu3+ and the XL665 labeled streptavidin. The aim of this protocol is to calculate the ability of test compounds to inhibit the phosphorylation of the product of this reaction and calculate their relative IC50 values.
A reference compound, if desired, may be prepared as a 1 mM stock solution in 100% DMSO and test compounds are prepared as 10 mM stock solutions in 100% DMSO. 1 mM reference compound and 10 mM test compounds are pre-diluted to 8 μM and 80 μM 10% DMSO solutions in a 96-well dilution plate. Compounds are serially diluted (1:3) using Tecan Freedom EVO 200 and 10-point dilution curves are generated for each of the compounds tested. 10 μL of serially diluted compounds are transferred to a 96-well assay plate using Temo (Tecan). […] The assay plate is incubated at RT for 60 min before reading the fluorescence signals at 620 nm emission and 665 nm […] in a Victor3 instrument (PerkinElmer Corporation). […]

[1] = system: U87MG glioblastoma xenografts; experiment: Xenograft tumor model U87MG; type: in vivo, mice
Description: (§1) Human glioblastoma cells U87MG, human gastric cancer cells MKN45, or human pancreatic KP4 cells are cultured and implanted subcutaneously in the rear flank of female CD-1 nu/nu strain mice which have been acclimated for one week in the animal facility after receipt from the vendor. Mice are randomized into groups of 10 mice per group. Testing compound is prepared in an appropriate vehicle and is administered by oral gavage when tumors are established (7-21 days after implant, or when the mean tumor volume reaches ˜100 mm^3). Tumor response is determined by tumor volume measurement performed twice a week during the course of treatment. Fluctuations in body weight are also monitored as a general measurement of toxicity. The compound of example 1 is orally administered twice a day for 28 days.
(§2) For statistical analysis, the individual subject tumor volumes are transformed to log volume and are analyzed with a two-way repeated measures analysis of variance by time and treatment using the MIXED procedures in SAS software (version 8.2). The correlation model for the repeated measures is spatial power. Treated groups are compared to the control group at the final time point. The MIXED procedure is also used separately for each treatment group to calculate adjusted means and standard errors at each time point. Both analyses account for the autocorrelation within each subject.

[2] = system: KP4 pancreatic xenografts; experiment: Xenograft tumor model KP4; type: in vivo, mice
Description: as §1, §2

[3] = Plasma concentration in IVTI studies; type: in vivo; settings: athymic nude, mouse, oral, 10% acacia
Description: In IVTI studies, each compound is administered orally and formulated in 10% w/v acacia. Mouse blood samples are collected with anti-coagulant (EDTA-purple top Vacutainer tube) post-dose using cardiac puncture techniques. Tubes are inverted for 3-5 times and are placed on ice until centrifugation at 3000 RPM (1800×g) for 10 min at 4° C. to obtain plasma. Aliquots of plasma are pipetted and stored in a clean 96 well plate. Plasma samples are stored immediately at −80° C. Shipments of plasma samples are packed in dry ice and samples are frozen at −80° C. until analysis.
A 0.1-mg/mL stock solution of each drug was prepared and is serially diluted into pooled mouse plasma to prepare standards ranging from 1 to 5000 ng/mL. Plasma standards or samples (0.025 mL) in 96-well plates are treated by protein precipitation with the addition of a 0.1-0.2 ml of methanol: acetonitrile (1/1, v/v) containing internal standard. […] Samples and standards are analyzed with a Sciex API 4000 Triple Quadrupole Mass Spectrometer (Sciex, Division of MDS Inc., Toronto, Canada) coupled to a Shimadzu HPLC System (LC-10AD, Shimadzu Corporation) and a Gilson 215 Autosampler. […] Quantitation is performed using multiple reaction monitoring (MRM) at the following transitions: Example 1 (m/z 363.05 to m/z 163.10) and the reference compound 20 (m/z 363.05 to m/z 163.10). […]

[4] = 2 mg/kg oral twice a day for 28 days
[5] = 4 mg/kg oral twice a day for 28 days
[6] = 8 mg/kg oral twice a day for 28 days
[7] = 16 mg/kg oral twice a day for 28 days
[8] = 32 mg/kg oral twice a day for 28 days

Chain of cMet enzyme (P08581 25-1390): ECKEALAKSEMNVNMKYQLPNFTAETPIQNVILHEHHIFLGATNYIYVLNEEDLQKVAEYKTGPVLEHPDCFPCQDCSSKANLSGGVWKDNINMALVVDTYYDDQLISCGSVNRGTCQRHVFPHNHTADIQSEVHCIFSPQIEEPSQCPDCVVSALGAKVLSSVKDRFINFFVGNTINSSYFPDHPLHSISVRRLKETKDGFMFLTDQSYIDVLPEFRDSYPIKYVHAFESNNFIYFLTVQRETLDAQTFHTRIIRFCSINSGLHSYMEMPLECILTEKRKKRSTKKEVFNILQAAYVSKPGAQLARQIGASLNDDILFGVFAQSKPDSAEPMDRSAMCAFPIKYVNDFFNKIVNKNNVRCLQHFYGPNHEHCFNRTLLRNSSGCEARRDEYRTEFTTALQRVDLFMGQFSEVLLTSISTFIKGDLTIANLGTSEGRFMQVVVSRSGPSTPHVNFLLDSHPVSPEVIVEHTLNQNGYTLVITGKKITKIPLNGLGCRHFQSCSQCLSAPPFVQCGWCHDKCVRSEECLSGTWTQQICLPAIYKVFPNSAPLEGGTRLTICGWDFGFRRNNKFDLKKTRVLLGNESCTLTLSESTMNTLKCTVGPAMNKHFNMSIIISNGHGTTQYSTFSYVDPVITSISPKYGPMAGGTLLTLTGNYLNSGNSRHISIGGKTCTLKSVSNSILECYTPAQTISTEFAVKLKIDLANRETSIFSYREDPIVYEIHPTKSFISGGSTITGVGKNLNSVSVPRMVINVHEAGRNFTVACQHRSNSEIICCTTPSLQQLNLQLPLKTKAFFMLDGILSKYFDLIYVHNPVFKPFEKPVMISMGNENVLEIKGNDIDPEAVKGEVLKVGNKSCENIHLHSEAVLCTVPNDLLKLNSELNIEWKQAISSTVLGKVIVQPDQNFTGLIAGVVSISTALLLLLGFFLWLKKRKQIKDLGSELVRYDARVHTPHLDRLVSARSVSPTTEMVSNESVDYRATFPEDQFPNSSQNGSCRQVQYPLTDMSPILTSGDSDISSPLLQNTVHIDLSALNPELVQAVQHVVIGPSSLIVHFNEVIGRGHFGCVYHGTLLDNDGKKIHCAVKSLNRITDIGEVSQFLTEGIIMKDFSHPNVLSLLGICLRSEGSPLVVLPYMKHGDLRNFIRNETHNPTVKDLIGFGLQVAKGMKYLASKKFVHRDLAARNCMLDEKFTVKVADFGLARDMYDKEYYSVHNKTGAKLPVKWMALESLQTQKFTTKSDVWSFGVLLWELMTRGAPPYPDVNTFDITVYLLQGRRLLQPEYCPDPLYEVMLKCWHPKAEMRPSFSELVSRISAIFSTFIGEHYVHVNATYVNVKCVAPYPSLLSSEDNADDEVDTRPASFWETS

Which results are given for Cn1cc(-c2ccc3nnc(Sc4ccc5nn(C)cc5c4)n3n2)cn1 [Example 1, 6-(1-Methyl-1H-pyrazol-4-yl)-3-(2-methyl-2H-indazol-5-ylthio)-[1,2,4]triazolo[4,3-b]pyridazine]?
IC50 (cMet enzyme): 10 nM; Mean Tumor Volume ± Standard Error [1, 4]: 271 ± 61 mm^3; Mean Tumor Volume ± Standard Error [1, 5]: 137 ± 29 mm^3; Mean Tumor Volume ± Standard Error [1, 6]: 108 ± 16 mm^3; Mean Tumor Volume ± Standard Error [1, 7]: 116 ± 19 mm^3; Mean Tumor Volume ± Standard Error [1, 8]: 46 ± 4 mm^3; Mean Tumor Volume ± Standard Error [2, 4]: 1229 ± 83 mm^3; Mean Tumor Volume ± Standard Error [2, 5]: 1085 ± 256 mm^3; Mean Tumor Volume ± Standard Error [2, 6]: 627 ± 74 mm^3; Mean Tumor Volume ± Standard Error [2, 7]: 554 ± 47 mm^3; Mean Tumor Volume ± Standard Error [2, 8]: 273 ± 42 mm^3; concentration at 8 h ([3]; 8 mg/kg, read-out: Plasma conc. 8 mg/Kg after 8 h): 141 ng/mL; concentration at 8 h ([3]; 20 mg/kg, read-out: Plasma conc. 20 mg/Kg after 8 h): 318 ng/mL
